In patent US20220177485A1, “CAMPTOTHECIN DERIVATIVE, PREPARATION METHOD THEREFOR AND APPLICATION THEREOF” (MARINE BIOMEDICAL RESEARCH INSTITUTE OF QINGDAO CO., LTD., priority 2018, published 2022):
“And” between values parts separate entries of the source, which are not always exact repeats. Identical values can stand only once. Like-named read-outs stand apart in the source and are kept apart here. Marks after values point to notes of the source that are not given here.

Key:
[1] = test system: K562 cells (human chronic myeloid leukemia cells); assay: growth inhibition of tumor cells in vitro, K562; assay type: cell-based; details: K562 cell line, read-out: IC50 K562
Excerpt: (§1) We tested compounds target a variety of tumor cell for the growth inhibition to show its antitumor activity by using the method of the field technicians known. Chooses the tumor cell lines include: A549 cell non-small cell lung cancer cell line (people), K562 cells (human chronic myeloid leukemia cells), NCI-H1975 cells (non-small cell lung adenocarcinoma cancer cell), MDA-MB-231 cells (human breast cancer cells) and HCT-116 cells (human colon cancer cells).

[2] = test system: A549 lung transplantation tumor model and RM-1 (prostate) transplantation tumor model; assay: antitumor activity in vivo, transplanted tumor models in kunming mice; details: intraperitoneal injection
Description: Using the known in the field of technology, the antitumor activity of compounds in vivo was tested in kunming mice transplanted tumor model. The transplantation tumor models tested including A549 lung transplantation tumor model and RM-1 (prostate) transplantation tumor model. We conducted the tests by intraperitoneal injection.

[3] = test system: NCI-H1975 cells (non-small cell lung adenocarcinoma cancer cell); assay: growth inhibition of tumor cells in vitro, NCI-H1975; assay type: cell-based; details: Homo sapiens; NCI-H1975 cell line; read-out: IC50 NCI-H1975
Excerpt: as §1

[4] = test system: MDA-MB-231 cells (human breast cancer cells); assay: growth inhibition of tumor cells in vitro, MDA-MB-231; assay type: cell-based; details: Homo sapiens; MDA-MB-231 cell line; read-out: IC50 MDA-MB-231
Excerpt: as §1

[5] = test system: HCT-116 cells (human colon cancer cells); assay: cells; assay type: cell-based; details: Homo sapiens; HCT-116 cell line; read-out: IC50 HCT-116
Excerpt: as §1

[6] = molecular target: heat shock protein (HSP90); assay: macromolecular interaction on chip, HSP90; assay type: binding; details: compound fixed on the chip; HSP90 100 nM
Description: (§2) The experimental scheme: 1. Fixed the compounds on the chip:
(§3) Mobile phase were EGF (1 μM), FGF (1 μM), HSP90 (100 nM), FKBP12 (100 nM).
(§4) Detection whether small molecule compounds combined with the provided protein of heat shock protein (HSP90), epidermal growth factor (EGF) and fibroblast growth factor (FGF); and provide relevant data of combined dynamics.

[7] = molecular target: T1, epidermal growth factor (EGF) (Homo sapiens, UniProt P01133); assay: macromolecular interaction on chip, EGF; assay type: binding; details: compound fixed on the chip; EGF 1 μM
T1 construct: epidermal growth factor (EGF)
T1 sequence (P01133 971-1023 limits assumed, species assumed): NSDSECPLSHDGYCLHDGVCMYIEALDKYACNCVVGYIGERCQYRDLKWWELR
Description: as §2, §3, §4

[8] = molecular target: fibroblast growth factor (FGF); assay: macromolecular interaction on chip, FGF; assay type: binding; details: compound fixed on the chip; FGF 1 μM
Description: as §2, §3, §4

[9] = test system: HCT-116 transplanted tumors; details: for Tumor volume size / Inhibitory rate: gavage once a week; for Tumor volume size: day 23, x ± SE; for Inhibitory rate: day 23
Description: Digesting collecting cells after the desired amount of cells. Diluting the cells into 250 million/ml cell suspension with 5 A culture medium containing 10% fetal bovine serum. […] Stay around tumor growth to 1 g tissue block, cutting short diameter growth of around 1 mm plaque, by inserting a catheter method. […] Compound of low dose group and high dose group were given by gavages once a week, respectively. The group of irinotecan and 5-fluorouracil were treated by intravenous every three days. Recording changes in body weight in mice, and tumors size three times a week.

| SMILES | IC50 [1] [nM] | melting point [°C] | antitumor activity in vivo compared with topotecan [2] | IC50 [3] [nM] | IC50 [4] [nM] | IC50 [5] [nM] | KD HSP90 [6] | KD EGF [7] | KD FGF [8] | mice weight change ([9]; high and low dose group, weight returned after 10 days but still lower than control) | Tumor volume size ([9]; high dose 5 mg/kg) | Inhibitory rate ([9]; high dose 5 mg/kg, 5 mg/kg) | Tumor volume size ([9]; low dose 2.5 mg/kg) | Inhibitory rate ([9]; low dose 2.5 mg/kg, 2.5 mg/kg) |
| --- | --- | --- | --- | --- | --- | --- | --- | --- | --- | --- | --- | --- | --- | --- |
| CC[C@@]1(O)C(=O)OCc2c1cc1n(c2=O)Cc2c-1nc1cc3c(cc1c2CCc1ccc(N2CCCC2)c(F)c1)OCO3 [Compound 11, 20(S)-7-(3-fluoro-4-(pyrrolidin-1-yl))-10,11-methylenedioxy-camptothecin] | 305 ± 8.75 | > 250 | better than that of topotecan | – | – | – | – | – | – | – | – | – | – | – |
| CC[C@@]1(O)C(=O)OCc2c1cc1n(c2=O)Cc2c-1nc1cc3c(cc1c2-c1ccoc1)OCO3 [Compound 23, 20(S)-7-(furan-3-yl)-10,11-methylenedioxy-camptothecin] | – | – | better than that of topotecan | 95.5 ± 5.57 | 83.8 ± 6.64 | 2.97 ± 0.25 | No combination | No combination | No combination | declined | 19.94 ± 2.17*^a mm^3 | 87.04% and 95.45^a % | 100.52 ± 20.45*^a mm^3 | 95.45% and 87.04^a % |
